Laboratory results reported in US5200409A, “Composition and use of substituted 1,3-dithiolo-and 1,4-dithiinoquinoxalines as an antimicrobial” (The Dow Chemical Company, priority 1992, dated 1993).
In brackets after ≈: the same amount, converted by molar mass. Like-named read-outs stand apart in the source and are kept apart here.

How the values were obtained:
Proteus vulgaris (Pv) = assay: Minimum inhibitory concentration (MIC) in nutrient agar; assay type: cell-based, Proteus vulgaris ATCC 881
Method in brief: (§1)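 Each compound is tested by agar incorporation in nutrient agar at two pH values, 6.8 and 8.2, using final concentrations from 500 down to 1.0 ppm. Inoculum: 10^8 CFU/ml applied with a multipoint replicator; plates are read for growth after 48 h incubation at 30° C.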

[1] = tested on: Klebsiella pneumoniae (Kp); assay: as above; assay type: cell-based, Klebsiella pneumoniae ATCC 8308
Method in brief: as §1

Fusarium oxysporum (Fo) = assay: Minimum inhibitory concentration (MIC) in malt yeast agar; assay type: cell-based, Fusarium oxysporum ATCC 48112; details: read-out: Minimum Inhibitory Concentration, Fo
Method in brief: (§2)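 Compound dispersed in malt yeast agar at final 500, 250, 100, 50, 25, 10, 5, 2.5, 1.0 and 0 ppm (from 1% acetone/water solution); plates dried 24 h, then inoculated with saline/octylphenoxy polyethoxy ethanol suspensions of 7-day cultures diluted 1:9. Incubated at 30° C; read at 48 h for yeast, 72 h for fungi.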

Trichoderma viride (Tv) = assay: as above; assay type: cell-based, Trichoderma viride ATCC 8678; details: read-out: Minimum Inhibitory Concentration, Tv
Method in brief: as §2

[2] = tested on: Staphylococcus aureus (Sa); assay: Minimum inhibitory concentration (MIC) in nutrient agar; assay type: cell-based, Staphylococcus aureus ATCC 6538
Method in brief: as §1

[3] = tested on: Pseudomonas aeruginosa (Pa); assay: as above; assay type: cell-based, Pseudomonas aeruginosa ATCC 10145; details: 48 hours
Method in brief: as §1

[4] = tested on: Aureobasidium pullulan (Ap); assay: Minimum inhibitory concentration (MIC) in malt yeast agar; assay type: cell-based, Aureobasidium pullulan ATCC 16622; details: read-out: Minimum Inhibitory Concentration, Ap
Method in brief: as §2

[5] = tested on: Enterobacter aerogenes (Ea); assay: Minimum inhibitory concentration (MIC) in nutrient agar; assay type: cell-based, Enterobacter aerogenes ATCC 13048; details: Klebsiella aerogenes
Method in brief: as §1

Candida albicans (Ca) = assay: Minimum inhibitory concentration (MIC) in malt yeast agar; assay type: cell-based, Candida albicans ATCC 10231; details: read-out: Minimum Inhibitory Concentration, Ca
Method in brief: as §2

[6] = tested on: Saccharomyces cerevisiae (Sc); assay: as above; assay type: cell-based, Saccharomyces cerevisiae ATCC 4105; details: read-out: Minimum Inhibitory Concentration, Sc
Method in brief: as §2

[7] = tested on: Pseudomonas aeruginosa (PRD-10); assay: Minimum inhibitory concentration (MIC) in nutrient agar; assay type: cell-based, Pseudomonas aeruginosa ATCC 15442
Method in brief: as §1

[8] = tested on: Salmonella choleraesuis (Sc); assay: as above; assay type: cell-based, Salmonella choleraesuis ATCC 10708; details: Salmonella enterica
Method in brief: as §1

Escherichia coli (Ec) = assay: as above; assay type: cell-based, Escherichia coli ATCC 11229
Method in brief: as §1

Aspergillus niger (An) = assay: Minimum inhibitory concentration (MIC) in malt yeast agar; assay type: cell-based, Aspergillus niger ATCC 16404; details: read-out: Minimum Inhibitory Concentration, An
Method in brief: as §2

[9] = tested on: Penicillium chrysogenum (Pc); assay: as above; assay type: cell-based, Penicillium chrysogenum ATCC 9480; details: read-out: Minimum Inhibitory Concentration, Pc
Method in brief: as §2

[10] = 48 h, pH 8.2, read-out: Minimum Inhibitory Concentration, Pv
[11] = 48 h, pH 8.2, read-out: Minimum Inhibitory Concentration, Kp
[12] = pH 6.8, nutrient agar, 30° C., 48 hours, read-out: Minimum Inhibitory Concentration, Kp
[13] = malt yeast agar, 30° C., 72 hours for fungi
[14] = 48 h, pH 6.8, read-out: Minimum Inhibitory Concentration, Sa
[15] = pH 8.2, nutrient agar, 30° C., 48 hours, read-out: Minimum Inhibitory Concentration, Sa
[16] = 48 h, pH 8.2, read-out: Minimum Inhibitory Concentration, Ea
[17] = 48 h, pH 8.2, read-out: Minimum Inhibitory Concentration, PRD
[18] = 48 h, pH 8.2, read-out: Minimum Inhibitory Concentration, Sc
[19] = 48 h, pH 8.2, read-out: Minimum Inhibitory Concentration, Ec
[20] = 48 h, pH 6.8, read-out: Minimum Inhibitory Concentration, Pv
[21] = 48 h, pH 6.8, read-out: Minimum Inhibitory Concentration, Kp
[22] = 48 h, pH 8.2, read-out: Minimum Inhibitory Concentration, Sa
[23] = 48 h, pH 6.8, read-out: Minimum Inhibitory Concentration, Ea
[24] = 48 h, pH 6.8, read-out: Minimum Inhibitory Concentration, PRD
[25] = 48 h, pH 6.8, read-out: Minimum Inhibitory Concentration, Sc
[26] = 48 h, pH 6.8, read-out: Minimum Inhibitory Concentration, Ec
[27] = malt yeast agar, 30° C., 48 hours for yeast and 72 hours for fungi
[28] = malt yeast agar, 30° C., 48 hours for yeast
[29] = pH 6.8, nutrient agar, 30° C., 48 hours, read-out: Minimum Inhibitory Concentration, Sa

SMILES	MIC (Proteus vulgaris (Pv); [10]) [µg/mL]	MIC [1, 11] [µg/mL]	MIC [1, 12] [µg/mL]	MIC (Fusarium oxysporum (Fo); [13]) [µg/mL]	MIC (Trichoderma viride (Tv); 72 h) [µg/mL]	MIC [2, 14] [µg/mL]	MIC ([3]; pH 6.8, 30° C.) [µg/mL]	MIC ([3]; pH 8.2, 30° C.) [µg/mL]	MIC [4] [µg/mL]	MIC [5, 16] [µg/mL]	MIC (Candida albicans (Ca); 48 h) [µg/mL]	MIC [7, 17] [µg/mL]	MIC [8, 18] [µg/mL]	MIC (Escherichia coli (Ec); [19]) [µg/mL]	MIC (Proteus vulgaris (Pv); [20]) [µg/mL]	MIC [2, 22] [µg/mL]	MIC [5, 23] [µg/mL]	MIC [7, 24] [µg/mL]	MIC [8, 25] [µg/mL]	MIC (Escherichia coli (Ec); [26]) [µg/mL]	also measured
N#CC1=C(C#N)Sc2nc3cc([N+](=O)[O-])ccc3nc2S1 [A, 7-nitro-1,4-dithiino-(2,3-b)-quinoxaline-2,3-dicarbonitrile]	> 500	500 (≈ 1600 µM)	25 (≈ 79.8 µM)	2.5 (≈ 7.98 µM)	10 (≈ 31.9 µM)	< 10	100 (≈ 319 µM)	> 500	2.5 (≈ 7.98 µM)	> 500	2.5 (≈ 7.98 µM)	> 500	> 500	> 500	–	–	–	–	–	–	MIC (Proteus vulgaris (Pv); pH 6.8, nutrient agar, 30° C., 48 hours, read-out: Minimum Inhibitory Concentration, Pv): 50 µg/mL (≈ 160 µM); MIC [2, 15]: 100 µg/mL (≈ 319 µM); MIC ([5]; pH 6.8, nutrient agar, 30° C., 48 hours, read-out: Minimum Inhibitory Concentration, Ea): 100 µg/mL (≈ 319 µM); MIC ([6]; 48 h): 2.5 µg/mL (≈ 7.98 µM); MIC ([7]; pH 6.8, nutrient agar, 30° C., 48 hours, read-out: Minimum Inhibitory Concentration, PRD): 250 µg/mL (≈ 798 µM); MIC ([8]; pH 6.8, nutrient agar, 30° C., 48 hours, read-out: Minimum Inhibitory Concentration, Sc): 50 µg/mL (≈ 160 µM); MIC (Escherichia coli (Ec); pH 6.8, nutrient agar, 30° C., 48 hours, read-out: Minimum Inhibitory Concentration, Ec): 25 µg/mL (≈ 79.8 µM)
N#CC1=C(C#N)Sc2nc3cc([N+](=O)[O-])c([N+](=O)[O-])cc3nc2S1 [B, 7,8-Dinitro-1,4-dithiino-(2,3-b)quinoxaline-2,3-dicarbonitrile]	> 500	> 500	–	–	50 (≈ 140 µM)	< 10	> 500	> 500	5 (≈ 14 µM)	> 500	25 (≈ 69.8 µM)	> 500	> 500	> 500	> 500	< 10	> 500	> 500	500 (≈ 1400 µM)	250 (≈ 698 µM)	MIC (Aspergillus niger (An); 72 h): 25 µg/mL (≈ 69.8 µM); MIC [1, 21]: 250 µg/mL (≈ 698 µM); MIC (Fusarium oxysporum (Fo); 72 h): 25 µg/mL (≈ 69.8 µM); MIC ([6]; 48 h): 25 µg/mL (≈ 69.8 µM); MIC ([9]; 72 h): 10 µg/mL (≈ 27.9 µM)
N#CC1=C(C#N)Sc2nc3cc(Cl)ccc3nc2S1 [C, 7-chloro-1,4-dithiino-(2,3-b)-quinoxaline-2,3-dicarbonitrile]	> 500	> 500	> 500	25 (≈ 82.6 µM)	250 (≈ 826 µM)	50 (≈ 165 µM)	> 500	> 500	–	> 500	–	> 500	> 500	> 500	> 500	–	> 500	> 500	> 500	> 500	MIC (Aspergillus niger (An); [13]): 25 µg/mL (≈ 82.6 µM); MIC [2, 15]: 50 µg/mL (≈ 165 µM); MIC [4, 27]: < 10 µg/mL; MIC (Candida albicans (Ca); [28]): < 10 µg/mL; MIC [6, 28]: < 10 µg/mL; MIC [9, 13]: < 10 µg/mL
Cc1ccc2nc3c(nc2c1)SC(C#N)=C(C#N)S3 [D, 7-Methyl-1,4-dithiino-(2,3-b)quinoxaline-2,3-dicarbonitrile]	> 500	> 500	> 500	–	100 (≈ 354 µM)	–	> 500	> 500	–	> 500	50 (≈ 177 µM)	> 500	> 500	> 500	> 500	500 (≈ 1770 µM)	> 500	> 500	> 500	> 500	MIC (Aspergillus niger (An); 72 h): 50 µg/mL (≈ 177 µM); MIC (Fusarium oxysporum (Fo); 72 h): 50 µg/mL (≈ 177 µM); MIC [2, 29]: 100 µg/mL (≈ 354 µM); MIC [4, 27]: 25 µg/mL (≈ 88.5 µM); MIC ([6]; 48 h): 25 µg/mL (≈ 88.5 µM); MIC ([9]; 72 h): 50 µg/mL (≈ 177 µM)
N#CC1=C(C#N)Sc2nc3ccccc3nc2S1 [E, 1,4-dithiino-(2,3-b)-quinoxaline-2,3-dicarbonitrile]	> 500	> 500	500 (≈ 1860 µM)	–	100 (≈ 373 µM)	–	> 500	> 500	–	> 500	–	> 500	> 500	> 500	> 500	< 10	> 500	> 500	> 500	> 500	MIC (Aspergillus niger (An); [13]): < 10 µg/mL; MIC (Fusarium oxysporum (Fo); 72 h): 50 µg/mL (≈ 186 µM); MIC [2, 29]: 25 µg/mL (≈ 93.2 µM); MIC [4, 27]: < 10 µg/mL; MIC (Candida albicans (Ca); [28]): < 10 µg/mL; MIC [6, 28]: < 10 µg/mL; MIC [9, 13]: < 10 µg/mL
N#CC(C#N)=C1Sc2nc3ccc([N+](=O)[O-])cc3nc2S1 [L, 6-nitro-1,3-dithiolo-(4,5-b)-quinoxaline-2-ylidene-propanedinitrile]	> 500	> 500	> 500	10 (≈ 31.9 µM)	–	–	> 500	> 500	5 (≈ 16 µM)	> 500	–	> 500	> 500	> 500	> 500	> 500	> 500	> 500	> 500	> 500	MIC (Aspergillus niger (An); 72 h): 2.5 µg/mL (≈ 7.98 µM); MIC [2, 29]: 100 µg/mL (≈ 319 µM); MIC (Candida albicans (Ca); [28]): 10 µg/mL (≈ 31.9 µM); MIC [6, 28]: 5 µg/mL (≈ 16 µM); MIC ([9]; 72 h): 2.5 µg/mL (≈ 7.98 µM)
N#CC(C#N)=C1Sc2nc3cc([N+](=O)[O-])c([N+](=O)[O-])cc3nc2S1 [M, 6,7-dinitro-1,3-dithiolo-(4,5-b)-quinoxaline-2-ylidene-propanedinitrile]	> 500	> 500	–	–	10 (≈ 27.9 µM)	< 10	500 (≈ 1400 µM)	> 500	2.5 (≈ 6.98 µM)	> 500	2.5 (≈ 6.98 µM)	> 500	> 500	> 500	> 500	100 (≈ 279 µM)	> 500	> 500	500 (≈ 1400 µM)	> 500	MIC (Aspergillus niger (An); 72 h): 2.5 µg/mL (≈ 6.98 µM); MIC [1, 21]: 50 µg/mL (≈ 140 µM); MIC (Fusarium oxysporum (Fo); 72 h): 5 µg/mL (≈ 14 µM); MIC ([6]; 48 h): 2.5 µg/mL (≈ 6.98 µM); MIC ([9]; 72 h): 2.5 µg/mL (≈ 6.98 µM)
N#CC(C#N)=C1Sc2nc3ccc(Cl)cc3nc2S1 [O, 6-chloro-1,3-dithiolo-(4,5-b)-quinoxaline-2-ylidene-propanedinitrile]	> 500	> 500	> 500	> 500	–	–	> 500	> 500	–	> 500	–	> 500	> 500	> 500	> 500	> 500	> 500	> 500	> 500	> 500	MIC (Aspergillus niger (An); [13]): 500 µg/mL (≈ 1650 µM); MIC (Trichoderma viride (Tv); [13]): > 500 µg/mL; MIC [2, 29]: > 500 µg/mL; MIC [4, 27]: 500 µg/mL (≈ 1650 µM); MIC (Candida albicans (Ca); [28]): > 500 µg/mL; MIC [6, 28]: > 500 µg/mL; MIC [9, 13]: 500 µg/mL (≈ 1650 µM)
